Results: paper PMC6757289, “Design and Characterization of SGK3-PROTAC1, an Isoform Specific SGK3 Kinase PROTAC Degrader” (ACS Chemical Biology, 2019)
Where a SMILES comes first, the peptide text is derived from it. The star is where a group is joined. Cbz = O=C(OCc1ccccc1)*

How the values were obtained:
ZR-75-1 cells = experiment: Cell growth (confluency, Incucyte S3); type: cell-based; conditions: ZR-75-1, 1 μM
Description: (§1) Figure 6 SGK3-PROTAC1-mediated degradation of SGK3 further inhibiting the growth of cancer cell lines treated with PI3K-Akt pathway inhibitors. CAMA-1 (A, C) and ZR-75-1 (B, D) were treated with compounds as indicated either as monotherapy or in combination, and confluency was measured on the Incucyte S3 every 4 h for up to 4 weeks.
(§2) For growth assays, ZR-75-1 cells were seeded in 96-well plates at a density of 6000 cells/well and left to adhere overnight. Cells were then treated with compounds as described in the figure legends and imaged every 4 h on the Incucyte S3 (Essen Bioscience) for up to 4 weeks to give a measure of cell confluency. Media were refreshed every 4–5 days.
(§3) Supplementary Figure S3. SGK3-PROTAC compounds have no effect on cell growth. CAMA-1 and ZR-75-1
(§4) confluency was m easured every 4 h on Incucyte S3.
(§5) (1 picture or pasted object on this page, not shown here)

CAMA-1 cells = experiment: Cell growth (confluency, Incucyte S3); type: cell-based; conditions: CAMA-1, 1 μM
Description: as §1, §2, §3, §4, §5

SGK1 = target: T1, SGK1 (Homo sapiens, UniProt O00141, S422D); experiment: IC50 determination, biochemical kinase assay; conditions: not in the presence of VHL
T1 sequence (O00141 60-431 S422D limits assumed): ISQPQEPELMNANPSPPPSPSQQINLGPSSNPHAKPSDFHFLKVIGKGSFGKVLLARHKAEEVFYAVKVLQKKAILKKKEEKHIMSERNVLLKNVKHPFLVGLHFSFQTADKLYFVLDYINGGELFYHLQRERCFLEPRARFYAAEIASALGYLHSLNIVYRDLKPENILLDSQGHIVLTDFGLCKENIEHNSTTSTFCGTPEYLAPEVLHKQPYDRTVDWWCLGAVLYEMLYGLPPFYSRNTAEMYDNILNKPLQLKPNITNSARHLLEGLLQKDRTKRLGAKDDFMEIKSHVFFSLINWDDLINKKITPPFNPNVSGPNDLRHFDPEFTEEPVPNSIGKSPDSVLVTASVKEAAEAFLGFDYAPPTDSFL

SGK3 [1] = target: T2, SGK3 (Homo sapiens, UniProt Q96BR1); experiment: IC50 determination, biochemical kinase assay; conditions: for IC50: not in the presence of VHL
T2 sequence (Q96BR1 1-496): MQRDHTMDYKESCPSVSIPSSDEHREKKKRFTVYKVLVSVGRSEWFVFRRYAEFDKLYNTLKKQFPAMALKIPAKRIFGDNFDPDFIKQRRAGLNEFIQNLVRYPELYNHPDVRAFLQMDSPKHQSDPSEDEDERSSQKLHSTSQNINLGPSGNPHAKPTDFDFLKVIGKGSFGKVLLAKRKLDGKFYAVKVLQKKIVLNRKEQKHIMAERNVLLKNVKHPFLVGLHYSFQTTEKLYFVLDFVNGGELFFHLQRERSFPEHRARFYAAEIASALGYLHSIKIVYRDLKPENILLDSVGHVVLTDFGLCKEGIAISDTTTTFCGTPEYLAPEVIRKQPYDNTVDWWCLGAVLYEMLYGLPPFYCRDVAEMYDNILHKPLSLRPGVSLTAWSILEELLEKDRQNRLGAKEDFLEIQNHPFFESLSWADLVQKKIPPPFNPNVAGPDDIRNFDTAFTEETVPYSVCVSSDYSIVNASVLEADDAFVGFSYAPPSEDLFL
Description: (§6) IC50 determination was performed at the MRC PPU International Centre for Protein Kinase Profiling, according to the protocol previously described[47],[48]

S6K1 = S6K1 (Homo sapiens, UniProt P23443, T412E); experiment: IC50 determination, biochemical kinase assay; conditions: not in the presence of VHL
Chain of S6K1 (P23443 1-421 T412E limits assumed): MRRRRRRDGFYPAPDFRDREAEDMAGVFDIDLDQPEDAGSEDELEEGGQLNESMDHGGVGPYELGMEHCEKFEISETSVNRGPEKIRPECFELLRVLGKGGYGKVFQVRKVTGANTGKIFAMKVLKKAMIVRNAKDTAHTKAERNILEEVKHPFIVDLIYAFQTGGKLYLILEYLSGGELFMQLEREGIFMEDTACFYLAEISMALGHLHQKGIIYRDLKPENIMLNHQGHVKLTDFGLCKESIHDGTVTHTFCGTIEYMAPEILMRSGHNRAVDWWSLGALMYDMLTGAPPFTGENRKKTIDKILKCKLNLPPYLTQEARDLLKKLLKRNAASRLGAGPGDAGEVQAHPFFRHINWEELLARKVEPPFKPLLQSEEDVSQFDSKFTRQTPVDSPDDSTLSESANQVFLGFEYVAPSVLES
Description: as §6

SGK3 [2] = target: T2, SGK3; experiment: SGK3 degradation in HEK293 cells, immunoblot; type: cell-based; design: reduced endogenous SGK isoform or S6K1 expression when administered to HEK293 cells for 48 h; endogenous in cells; host or cells: HEK293; conditions: for effect on SGK3-PROTAC1-mediated degradation of SGK3: HEK293, pretreatment, 6 h 0.3 µM SGK3-PROTAC1; for effect on DAT1-induced degradation of SGK3: HEK293, MLN4924 3 μM, MG132 50 μM
Description: Figure 1 Design and cellular activity of first generation SGK3 PROTACs. (A) Structure of compound 14H, previously published by Sanofi as an inhibitor of SGK3. (B) Starting material for SGK PROTACs. […] (C) Structures of first generation SGK PROTACs. SGK and E3 ligase targeting motifs were joined by a 3xPEG linker to produce the PROTACs. (D) HEK293 cells were treated for 48 h with increasing concentrations of each PROTAC compound from 0.1 nM to 10 μM. Cell lysates were subjected to immunoblot analysis with the indicated antibodies, and SGK3 protein levels were quantified in Image Studio Lite software (Licor).
Figure 2 Design and cellular evaluation of second and third generation SGK PROTACs. (A) Chemical structure of compounds DAT5–12, expanding upon DAT1. (B) Chemical structure of cisSGK3-PROTAC1. (C) HEK293 cells were treated for 48 h with increasing concentrations of each PROTAC compound from 1 nM to 10 μM. Cell lysates were subjected to immunoblot analysis with the indicated antibodies, and SGK3 protein levels quantified in Image Studio Lite software. (D) HEK293 cells were treated for 48 h with increasing concentrations of each PROTAC compound from 1 nM to 10 μM. Cell lysates were subjected to immunoblot analysis with the indicated antibodies, and SGK3 and S6K1 protein levels were quantified in Image Studio Lite software. TEXT PRINTED IN THE PICTURE: (C) DAT1: % SGK3: 100 (48h Treatment (μM): 0); % SGK3: 94 (48h Treatment (μM): 0.001); % SGK3: 82 (48h Treatment (μM): 0.01); % SGK3: 70 (48h Treatment (μM): 0.1); % SGK3: 52 (48h Treatment (μM): 1); % SGK3: 31 (48h Treatment (μM): 10) | (C) DAT5: % SGK3: 100 (48h Treatment (μM): 0); % SGK3: 104 (48h Treatment (μM): 0.001); % SGK3: 82 (48h Treatment (μM): 0.01); % SGK3: 92 (48h Treatment (μM): 0.1); % SGK3: 73 (48h Treatment (μM): 1); % SGK3: 36 (48h Treatment (μM): 10) | (C) DAT6: % SGK3: 100 (48h Treatment (μM): 0); % SGK3: 105 (48h Treatment (μM): 0.001); % SGK3: 90 (48h Treatment (μM): 0.01); % SGK3: 71 (48h Treatment (μM): 0.1); % SGK3: 44 (48h Treatment (μM): 1); % SGK3: 20 (48h Treatment (μM): 10) | (C) DAT7: % SGK3: 100 (48h Treatment (μM): 0); % SGK3: 77 (48h Treatment (μM): 0.001); % SGK3: 80 (48h Treatment (μM): 0.01); % SGK3: 95 (48h Treatment (μM): 0.1); % SGK3: 37 (48h Treatment (μM): 1); % SGK3: 29 (48h Treatment (μM): 10) | (D) DAT8: % SGK3: 100 (48h Treatment (μM): 0); % SGK3: 97 (48h Treatment (μM): 0.001); % SGK3: 107 (48h Treatment (μM): 0.01); % SGK3: 34 (48h Treatment (μM): 0.1); % SGK3: 24 (48h Treatment (μM): 1); % SGK3: 19 (48h Treatment (μM): 10) | (D) DAT9: % SGK3: 100 (48h Treatment (μM): 0); % SGK3: 105 (48h Treatment (μM): 0.001); % SGK3: 71 (48h Treatment (μM): 0.01); % SGK3: 40 (48h Treatment (μM): 0.1); % SGK3: 11 (48h Treatment (μM): 1); % SGK3: 12 (48h Treatment (μM): 10) | (D) DAT10: % SGK3: 100 (48h Treatment (μM): 0); % SGK3: 100 (48h Treatment (μM): 0.001); % SGK3: 76 (48h Treatment (μM): 0.01); % SGK3: 54 (48h Treatment (μM): 0.1); % SGK3: 11 (48h Treatment (μM): 1); % SGK3: 9 (48h Treatment (μM): 10) | (D) DAT11: % SGK3: 100 (48h Treatment (μM): 0); % SGK3: 96 (48h Treatment (μM): 0.001); % SGK3: 97 (48h Treatment (μM): 0.01); % SGK3: 41 (48h Treatment (μM): 0.1); % SGK3: 32 (48h Treatment (μM): 1); % SGK3: 29 (48h Treatment (μM): 10) | (D) DAT12: % SGK3: 100 (48h Treatment (μM): 0); % SGK3: 106 (48h Treatment (μM): 0.001); % SGK3: 84 (48h Treatment (μM): 0.01); % SGK3: 79 (48h Treatment (μM): 0.1); % SGK3: 32 (48h Treatment (μM): 1); % SGK3: 29 (48h Treatment (μM): 10) DOUBTS OF THE COPYIST ABOUT THIS PICTURE: All % SGK3 values are quantification numbers printed under immunoblot lanes; each was assigned to a concentration by lane position / DAT9 and DAT10, % SGK3: the first numbers are printed run together ('100105', '100100') and were split as 100 | 105 and 100 | 100
Figure 3 Characterization of cellular activities of SGK3-PROTAC1 and cisSGK3-PROTAC1. […]

In the case of `NC1(C(=O)N[C@@H](CCO)c2ccc(Cl)cc2)CCN(c2ncnc3[nH]ccc23)CC1` [AZD5363, reference compound], the “growth, PI3K or Akt inhibitor monotherapy” value (ZR-75-1 cells) is reported as “substantially reduced growth” and the “growth, PI3K or Akt inhibitor monotherapy” value (CAMA-1 cells) is reported as “substantially reduced growth”.

For `COc1ccc(Cl)c(S(=O)(=O)Nc2ccc(-c3nc(OC[C@H]4CN(CCOCCOCCOCC(=O)N[C@H](C(=O)N5C[C@H](O)C[C@H]5C(=O)NCc5ccc(-c6scnc6C)cc5)C(C)(C)C)CCO4)c4c(C)n[nH]c4n3)cc2)c1` [DAT2], the IC50 (SGK1) was 0.4 µM, the “fold more potent inhibition of SGK1 and SGK3 than DAT1” value (SGK3 [1]; SGK1 and SGK3) was 2–4 fold and the IC50 (SGK3 [1]) was 0.19 µM. For the same compound, the IC50 (S6K1) was 0.18 µM.

Work on `Cc1ccc(F)c(S(=O)(=O)Nc2ccc(-c3nc(OC[C@H]4CN(CCOCCOCCOCC(=O)NCCNc5cccc6c5C(=O)N(C5CCC(=O)NC5=O)C6=O)CCO4)c4cn[nH]c4n3)cc2)c1` (some centres unmarked) [DAT3] yielded an IC50 (SGK1) of 1 µM, an IC50 (SGK3 [1]) of 0.64 µM and an IC50 (S6K1) of 0.24 µM.

Compound `COc1ccc(Cl)c(S(=O)(=O)Nc2ccc(-c3nc(OC[C@H]4CN(CCOCCOCCOCC(=O)NCCNc5cccc6c5C(=O)N(C5CCC(=O)NC5=O)C6=O)CCO4)c4c(C)n[nH]c4n3)cc2)c1` (some centres unmarked) [DAT4] has an IC50 (SGK1) of 0.6 µM, an IC50 (SGK3 [1]) of 0.54 µM and an IC50 (S6K1) of 0.19 µM.

Work on `Cc1ccc(F)c(S(=O)(=O)Nc2ccc(-c3nc(OC[C@H]4CN(CCCCCCOCCOCCOCCOCC(=O)N[C@H](C(=O)N5C[C@H](O)C[C@H]5C(=O)NCc5ccc(-c6scnc6C)cc5)C(C)(C)C)CCO4)c4cn[nH]c4n3)cc2)c1` [DAT9] yielded a remaining activity at 0.001 µM (SGK3 [2]; HEK293, 48 h, 0.001 μM, Figure 2) of 105%, a remaining activity at 0.01 µM (SGK3 [2]; HEK293, 48 h, 0.01 μM, Figure 2) of 71% and a remaining activity at 0.1 µM (SGK3 [2]; HEK293, 48 h, 0.1 μM, Figure 2) of 40%. The remaining activity at 1 µM (SGK3 [2]; HEK293, 48 h, 1 μM, Figure 2) was 11%, the remaining activity at 10 µM (SGK3 [2]; HEK293, 48 h, 10 μM, Figure 2) was 12% and the IC50 (SGK1) was 8.99 µM. It also gave an IC50 (SGK3 [1]) of 1.79 µM and an IC50 (S6K1) of 4.53 µM.

For `CS(=O)(=O)N1CCN(Cc2cc3nc(-c4cccc5[nH]ncc45)nc(N4CCOCC4)c3s2)CC1` [GDC0941, 2-(1H-Indazol-4-Yl)-6-(4-Methanesulfonyl-Piperazin-1-Ylmethyl)-4-Morpholin-4-Yl-t Hieno[3,2-d]Pyrimidine, reference compound], the “growth, PI3K or Akt inhibitor monotherapy” value (ZR-75-1 cells) was “substantially reduced growth” and the “growth, PI3K or Akt inhibitor monotherapy” value (CAMA-1 cells) was “substantially reduced growth”.

For `CC(C)C[C@@H](C=O)NC(=O)[C@H](CC(C)C)NC(=O)[C@H](CC(C)C)NC(=O)OCc1ccccc1` [MG132, reference compound] (Cbz-Leu-Leu-Leu-aldehyde), the “effect on SGK3-PROTAC1-mediated degradation of SGK3” value (SGK3 [2]) was “prevented” and the “effect on DAT1-induced degradation of SGK3” value (SGK3 [2]) was “blocked”.

For `NS(=O)(=O)OC[C@@H]1C[C@@H](n2ccc3c(N[C@H]4CCc5ccccc54)ncnc32)C[C@@H]1O` [MLN4924, reference compound], the “effect on SGK3-PROTAC1-mediated degradation of SGK3” value (SGK3 [2]) was “prevented” and the “effect on DAT1-induced degradation of SGK3” value (SGK3 [2]) was “blocked”.
